Data set [1] deals with HIV-IIIb. Put plainly: Test A: Antiviral Assay in MT4 Cells. The data set is classed as cell-based, HIV-1. To be noted: Human immunodeficiency virus 1, IIIB, MT4, 120 h; for inhibition at 0.2 µM: read-out: % inhibition at 0.2 μM; for inhibition at 2 µM: read-out: % inhibition at 2 μM. The procedure:
Test A: Antiviral Assay in MT4 Cells
(§1) MT-4 cells were next mixed with HIV-IIIb at an m.o.i of 0.003 for 1 hour, after which time 35 μL of virus/cell mixture (2000 cells) was immediately added to each well containing 40 μL of diluted compound. The plates were then incubated at 37° C. for 5 days. […] Cell lysis was carried out by incubating at room temperature for 10 min and then chemiluminescence was read.

The nature of data set [2]: Test B: Cytotoxicity Assay. The data set is classed as cell-based. The settings on record: human, uninfected MT-4 cells, same protocol as Test A. The procedure: as §1
Test B: Cytotoxicity Assay
Compound cytotoxicity and the corresponding CC50 values was determined using the same protocol as described in the antiviral assay (Test A) except that uninfected cells were used.

Turning to `CN(C)c1nn(CC(=O)N[C@@H](Cc2cc(F)cc(F)c2)c2nc(C#CC(C)(C)O)ccc2-c2ccc(Cl)c3c(NS(C)(=O)=O)nn(C)c23)c2c1[C@H]1C[C@H]1C2(F)F` [Compound 161, N—((S)-1-(3-(4-chloro-1-methyl-3-(methylsulfonamido)-1H-indazol-7-yl)-6-(3-hydroxy-3-methylbut-1-yn-1-yl)pyridin-2-yl)-2-(3,5-difluorophenyl)ethyl)-2-((3b-S,4aR)-3-(dimethylamino)-5,5-difluoro-3b,4,4a,5-tetrahydro-1H-cyclopropa[3,4]cyclopenta[1,2-c]pyrazol-1-yl)acetamide], in data set [1], the inhibition at 0.2 µM is 84% and the inhibition at 2 µM came out at 84%. The compound further returned a half-maximal cytotoxic concentration (CC50) at 5 days in data set [2] of 21.8 µM.

In the case of `CC(C)(O)C#Cc1ccc(-c2cccn3c(C(F)F)nnc23)c([C@H](Cc2cc(F)cc(F)c2)NC(=O)Cn2nc(C(F)F)c3c2C(F)(F)[C@@H]2C[C@H]32)n1` [Compound 138, 2-((3b-S,4aR)-3-(difluoromethyl)-5,5-difluoro-3b,4,4a,5-tetrahydro-1H-cyclopropa[3,4]cyclopenta[1,2-c]pyrazol-1-yl)-N—((S)-1-(3-(3-(difluoromethyl)-[1,2,4]triazolo[4,3-a]pyridin-8-yl)-6-(3-hydroxy-3-methylbut-1-yn-1-yl)pyridin-2-yl)-2-(3,5-difluorophenyl)ethyl)acetamide], in data set [1], the inhibition at 0.2 µM is 61% and the inhibition at 2 µM was 83%. In addition, half-maximal cytotoxicity in data set [2] (CC50 at 5 days) was put at 33.4 µM.

On to `Cn1nc(NS(C)(=O)=O)c2cccc(-c3ccc(C#CC(C)(C)N)nc3[C@H](Cc3cc(F)cc(F)c3)NC(=O)Cn3nc(C(F)(F)F)c4c3C(F)(F)[C@@H]3C[C@H]43)c21` [Compound 104, N—((S)-1-(6-(3-amino-3-methylbut-1-yn-1-yl)-3-(1-methyl-3-(methylsulfonamido)-1H-indazol-7-yl)pyridin-2-yl)-2-(3,5-difluorophenyl)ethyl)-2-((3bS,4aR)-5,5-difluoro-3-(trifluoromethyl)-3b,4,4a,5-tetrahydro-1H-cyclopropa[3,4]cyclopenta[1,2-c]pyrazol-1-yl)acetamide], for which, in data set [1], the inhibition at 0.2 µM was determined as 100% and the inhibition at 2 µM is 100%. Besides, the CC50 at 5 days in data set [2] came out at 7.46 µM.

In the case of `CC(C)(O)C#Cc1ccc(-c2cnc3[nH]ccc3c2F)c([C@H](Cc2cc(F)cc(F)c2)NC(=O)Cn2nc(C(F)(F)F)c3c2C(F)(F)[C@@H]2C[C@H]32)n1` [Compound 36C, 2-((3bS,4aR)-5,5-difluoro-3-(trifluoromethyl)-3b,4,4a,5-tetrahydro-1H-cyclopropa[3,4]cyclopenta[1,2-c]pyrazol-1-yl)-N—((S)-2-(3,5-difluorophenyl)-1-(3-(4-fluoro-1H-pyrrolo[2,3-b]pyridin-5-yl)-6-(3-hydroxy-3-methylbut-1-yn-1-yl)pyridin-2-yl)ethyl)acetamide], in data set [1], the inhibition at 0.2 µM is 88% and the inhibition at 2 µM came to 92%. The compound further yielded a CC50 at 5 days in data set [2] of 3.15 µM.

`CN1CCN(S(=O)(=O)Nc2nn(C)c3c(-c4ccc(C#CC(C)(C)O)nc4[C@H](Cc4cc(F)cc(F)c4)NC(=O)Cn4nc(C(F)(F)F)c5c4C(F)(F)[C@@H]4C[C@H]54)cccc23)CC1` [Compound 56F, 2-((3bS,4aR)-5,5-difluoro-3-(trifluoromethyl)-3b,4,4a,5-tetrahydro-1H-cyclopropa[3,4]cyclopenta[1,2-c]pyrazol-1-yl)-N—((S)-2-(3,5-difluorophenyl)-1-(6-(3-hydroxy-3-methylbut-1-yn-1-yl)-3-(1-methyl-3-(4-methylpiperazine-1-sulfonamido)-1H-indazol-7-yl)pyridin-2-yl)ethyl)acetamide]: in data set [1], the inhibition at 0.2 µM came out at 97% and the inhibition at 2 µM turned out to be 97%. The compound also came in with a cytotoxic concentration (CC50) at 5 days in data set [2] of 19 µM.

For the compound `Cn1nc(NS(N)(=O)=O)c2c(Cl)ccc(-c3ccc(C#CC(C)(C)O)nc3[C@H](Cc3cc(F)cc(F)c3)NC(=O)Cn3nc(C(F)(F)F)c4c3C(F)(F)[C@@H]3C[C@H]43)c21` [Compound 119C, N—((S)-1-(3-(4-chloro-1-methyl-3-(sulfamoylamino)-1H-indazol-7-yl)-6-(3-hydroxy-3-methylbut-1-yn-1-yl)pyridin-2-yl)-2-(3,5-difluorophenyl)ethyl)-2-((3b-S,4aR)-5,5-difluoro-3-(trifluoromethyl)-3b,4,4a,5-tetrahydro-1H-cyclopropa[3,4]cyclopenta[1,2-c]pyrazol-1-yl)acetamide], in data set [1], the inhibition at 0.2 µM came to 99% and the inhibition at 2 µM was 99%. The half-maximal cytotoxic concentration (CC50) at 5 days in data set [2] is 9.24 µM.

Take `Cn1nc(NS(C)(=O)=O)c2c(Cl)ccc(-c3ccc(C#CC(C)(O)CNC(=O)OC(C)(C)C)nc3[C@H](Cc3cc(F)cc(F)c3)NC(=O)Cn3nc(C(F)(F)F)c4c3C(F)(F)[C@@H]3C[C@H]43)c21` (stereo partly drawn) [Compound 184, tert-butyl (4-(5-(4-chloro-1-methyl-3-(methylsulfonamido)-1H-indazol-7-yl)-6-((S)-1-(2-((3bS,4aR)-5,5-difluoro-3-(trifluoromethyl)-3b,4,4a,5-tetrahydro-1H-cyclopropa[3,4]cyclopenta[1,2-c]pyrazol-1-yl)acetamido)-2-(3,5-difluorophenyl)ethyl)pyridin-2-yl)-2-hydroxy-2-methylbut-3-yn-1-yl)carbamate]: in data set [1], the inhibition at 0.2 µM was 90% and the inhibition at 2 µM was determined as 90%. In data set [2], this compound displayed a CC50 at 5 days of 7.69 µM.

Regarding `CC(C)C(O)C#Cc1ccc(-c2cccc3c(NS(C)(=O)=O)nn(C)c23)c([C@H](Cc2cc(F)cc(F)c2)NC(=O)Cn2nc(C(F)(F)F)c3c2C(F)(F)[C@@H]2C[C@H]32)n1` (stereo partly drawn) [Compound 64, 2-((3bS,4aR)-5,5-difluoro-3-(trifluoromethyl)-3b,4,4a,5-tetrahydro-1H-cyclopropa[3,4]cyclopenta[1,2-c]pyrazol-1-yl)-N-((1S)-2-(3,5-difluorophenyl)-1-(6-(3-hydroxy-4-methylpent-1-yn-1-yl)-3-(1-methyl-3-(methylsulfonamido)-1H-indazol-7-yl)pyridin-2-yl)ethyl)acetamide], in data set [1], the inhibition at 0.2 µM worked out at 98% and the inhibition at 2 µM came out at 98%. The compound also had a half-maximal cytotoxic concentration (CC50) at 5 days in data set [2] of 7.7 µM.

On to `CC(C)(O)C#Cc1ccc(-c2ccc(Cl)n3c(NS(C)(=O)=O)nnc23)c([C@H](Cc2cc(F)cc(F)c2)NC(=O)Cn2nc(C(F)F)c3c2C(F)(F)[C@@H]2C[C@H]32)n1` [Compound 110E, N—((S)-1-(3-(5-chloro-3-(methylsulfonamido)-[1,2,4]triazolo[4,3-a]pyridin-8-yl)-6-(3-hydroxy-3-methylbut-1-yn-1-yl)pyridin-2-yl)-2-(3,5-difluorophenyl)ethyl)-2-((3b-S,4aR)-3-(difluoromethyl)-5,5-difluoro-3b,4,4a,5-tetrahydro-1H-cyclopropa[3,4]cyclopenta[1,2-c]pyrazol-1-yl)acetamide], for which, in data set [1], the inhibition at 0.2 µM turned out to be 15% and the inhibition at 2 µM worked out at 98%. In data set [2], the cytotoxic concentration (CC50) at 5 days was more than 53.2 µM.

Turning to `Cn1nc(NS(C)(=O)=O)c2c(Cl)ccc(-c3cc(-c4ccccc4Cl)cnc3[C@H](Cc3cc(F)cc(F)c3)NC(=O)Cn3nc(C(F)F)c4c3C(F)(F)[C@@H]3C[C@H]43)c21` [Compound 181C, N—((S)-1-(3-(4-chloro-1-methyl-3-(methylsulfonamido)-1H-indazol-7-yl)-5-(2-chlorophenyl)pyridin-2-yl)-2-(3,5-difluorophenyl)ethyl)-2-((3b-S,4aR)-3-(difluoromethyl)-5,5-difluoro-3b,4,4a,5-tetrahydro-1H-cyclopropa[3,4]cyclopenta[1,2-c]pyrazol-1-yl)acetamide], in data set [1], the inhibition at 0.2 µM stood at 100% and the inhibition at 2 µM amounted to 100%. The compound further displayed a CC50 at 5 days in data set [2] of more than 53.2 µM.

Take `Cn1cnc(-c2ccc(-c3ccc(Cl)c4c(NS(C)(=O)=O)nn(C)c34)c([C@H](Cc3cc(F)cc(F)c3)NC(=O)Cn3nc(C(F)(F)F)c4c3C(F)(F)[C@@H]3C[C@H]43)n2)c1` [Compound 179, N—((S)-1-(3-(4-chloro-1-methyl-3-(methylsulfonamido)-1H-indazol-7-yl)-6-(1-methyl-1H-imidazol-4-yl)pyridin-2-yl)-2-(3,5-difluorophenyl)ethyl)-2-((3b-S,4aR)-5,5-difluoro-3-(trifluoromethyl)-3b,4,4a,5-tetrahydro-1H-cyclopropa[3,4]cyclopenta[1,2-c]pyrazol-1-yl)acetamide]: in data set [1], the inhibition at 0.2 µM stood at 100% and the inhibition at 2 µM stood at 100%. In data set [2], this compound gave a cytotoxic concentration (CC50) at 5 days of 15.5 µM.

`Cn1nc(NC(=O)C(F)F)c2c(Cl)ccc(-c3ccc(C#CC(C)(C)O)nc3[C@H](Cc3cc(F)cc(F)c3)NC(=O)Cn3nc(C(F)F)c4c3C(F)(F)[C@@H]3C[C@H]43)c21` [Compound 97, N-(4-chloro-7-(2-((S)-1-(2-((3b-S,4aR)-3-(difluoromethyl)-5,5-difluoro-3b,4,4a,5-tetrahydro-1H-cyclopropa[3,4]cyclopenta[1,2-c]pyrazol-1-yl)acetamido)-2-(3,5-difluorophenyl)ethyl)-6-(3-hydroxy-3-methylbut-1-yn-1-yl)pyridin-3-yl)-1-methyl-1H-indazol-3-yl)-2,2-difluoroacetamide]: in data set [1], the inhibition at 0.2 µM came out at 100% and the inhibition at 2 µM is 100%. In addition, in data set [2], the CC50 at 5 days came out at 7.6 µM.

As usually defined, the inhibition is the change of the read-out against control, counted positive when it falls. As usually defined, the CC50 is the concentration at which the toxic effect on the cells reaches its halfway point. A lower CC50 goes with greater toxicity to the cells.
